≈ marks a conversion by molar mass, not a printed value. Calls of active or inactive are those of the source. The calls are words filed in the database; no cut-off is given here.
What was measured:
Staphylococcus aureus [1] = test: Antibacterial activity against methicillin-resistant Staphylococcus aureus ATCC 43300 incubated for 16 to 18 hrs in absence of human plasma by CLSI based broth dilution method; type: functional; details: time 16-18 hrs
Escherichia coli [2] = test: Antibacterial activity against Escherichia coli ATCC 25922 incubated for 16 to 18 hrs by CLSI based broth dilution method; type: functional; details: time 16-18 hrs
Staphylococcus aureus [3] = test: Antibacterial activity against methicillin-resistant Staphylococcus aureus ATCC 43300 incubated for 16 to 18 hrs in presence of human plasma by CLSI based broth dilution method; type: functional; details: time 16-18 hrs
HepG2 = test: Cytotoxicity against human HepG2 cells measured after 72 hrs by MTT assay; type: functional, cell-based; details: HepG2, 72 h
[4] = test system: Staphylococcus epidermidis; test: Antibacterial activity against Staphylococcus epidermidis ATCC 12228 incubated for 16 to 18 hrs by CLSI based broth dilution method; type: functional; details: time 16-18 hrs
Escherichia coli [5] = test: Antibacterial activity against Escherichia coli ATCC 25922 assessed as inhibition of bacterial growth at upto 8 times MIC measured upto 28 hrs by time kill curve assay; type: functional, organism-based
HGC-27 = test: Cytotoxicity against human HGC-27 cells measured after 72 hrs by MTT assay; type: functional, cell-based; details: HGC-27, 72 h
Escherichia coli [6] = test: Antibacterial activity against Escherichia coli ATCC 25922 incubated for 16 to 18 hrs in presence of human plasma by CLSI based broth dilution method; type: functional; details: time 16-18 hrs
[7] = Toxicity in ip dosed ICR mouse assessed as animal death at high dose measured upto 8 days; type: organism-based; details: in vivo, 192 h, time < 8 day
Escherichia coli [8] = test: Antibacterial activity against Escherichia coli ATCC 25922 incubated for 16 to 18 hrs in absence of human plasma by CLSI based broth dilution method; type: functional; details: time 16-18 hrs
MCF7 = test: Cytotoxicity against human MCF7 cells measured after 72 hrs by MTT assay; type: functional, cell-based; details: MCF7, 72 h
Staphylococcus aureus [9] = test: Antibacterial activity against methicillin-resistant Staphylococcus aureus ATCC 43300 assessed as inhibition of bacterial growth at upto 8 times MIC measured upto 28 hrs by time kill curve assay; type: functional, organism-based
Acinetobacter baumannii [10] = test: Antibacterial activity against Acinetobacter baumannii ATCC 19606 incubated for 16 to 18 hrs by CLSI based broth dilution method; type: functional; details: time 16-18 hrs
HCT-116 = test: Cytotoxicity against human HCT-116 cells measured after 72 hrs by MTT assay; type: functional, cell-based; details: HCT-116, 72 h
Staphylococcus aureus [11] = test: Antibacterial activity against Staphylococcus aureus ATCC 29213 incubated for 16 to 18 hrs in absence of human plasma by CLSI based broth dilution method; type: functional; details: time 16-18 hrs
Staphylococcus aureus [12] = test: Antibacterial activity against Staphylococcus aureus ATCC 29213 incubated for 16 to 18 hrs by CLSI based broth dilution method; type: functional; details: time 16-18 hrs
Staphylococcus aureus [13] = test: Antibacterial activity against Staphylococcus aureus ATCC 29213 incubated for 16 to 18 hrs in presence of human plasma by CLSI based broth dilution method; type: functional; details: time 16-18 hrs
Enterococcus faecalis [14] = test: Antibacterial activity against Enterococcus faecalis ATCC 29212 incubated for 16 to 18 hrs by CLSI based broth dilution method; type: functional; details: time 16-18 hrs
Staphylococcus aureus [15] = test: Antibacterial activity against methicillin-resistant Staphylococcus aureus ATCC 43300 incubated for 16 to 18 hrs by CLSI based broth dilution method; type: functional; details: time 16-18 hrs
[16] = Toxicity in ICR mouse assessed as median lethal dose administered as single IP dose measured upto 8 days; details: in vivo, time < 8 day
Staphylococcus aureus [17] = test: Drug resistance against methicillin-resistant Staphylococcus aureus ATCC 43300 assessed as increase in MIC measured after 10 passaging for 24 hrs; type: functional, organism-based
Escherichia coli [18] = test: Antibacterial activity against Escherichia coli ECO 15-1 incubated for 16 to 18 hrs by CLSI based broth dilution method; type: functional; details: time 16-18 hrs
Acinetobacter baumannii [19] = test: Antibacterial activity against Acinetobacter baumannii 20-1 incubated for 16 to 18 hrs by CLSI based broth dilution method; type: functional; details: time 16-18 hrs
Klebsiella pneumoniae [20] = test: Antibacterial activity against Klebsiella pneumoniae ATCC 700603 assessed as reduction in microbial growth incubated for 16 to 18 hrs by CLSI based broth dilution method; type: functional; details: time 16-18 hrs
Staphylococcus aureus [21] = test: Antibacterial activity against methicillin-sensitive Staphylococcus aureus 15-1 incubated for 16 to 18 hrs by CLSI based broth dilution method; type: functional; details: time 16-18 hrs
Staphylococcus aureus [22] = test: Antibacterial activity against methicillin-resistant Staphylococcus aureus ATCC 33591 incubated for 16 to 18 hrs by CLSI based broth dilution method; type: functional; details: time 16-18 hrs
Enterococcus faecalis [23] = test: Antibacterial activity against Enterococcus faecalis EFA19-1 incubated for 16 to 18 hrs by CLSI based broth dilution method; type: functional; details: time 16-18 hrs
Staphylococcus aureus [24] = test: Antibacterial activity against methicillin-sensitive Staphylococcus aureus 15-2 incubated for 16 to 18 hrs by CLSI based broth dilution method; type: functional; details: time 16-18 hrs
Acinetobacter baumannii [25] = test: Antibacterial activity against Acinetobacter baumannii ATCC 19606 assessed as reduction in microbial growth incubated for 16 to 18 hrs by CLSI based broth dilution method; type: functional; details: time 16-18 hrs
Staphylococcus aureus [26] = test: Antibacterial activity against methicillin-sensitive Staphylococcus aureus ATCC 25923 incubated for 16 to 18 hrs by CLSI based broth dilution method; type: functional; details: time 16-18 hrs
Enterococcus = test: Antibacterial activity against Vancomycin-resistant Enterococcus ATCC 51575 incubated for 16 to 18 hrs by CLSI based broth dilution method; type: functional; details: time 16-18 hrs
Acinetobacter baumannii [27] = test: Antibacterial activity against Acinetobacter baumannii 20-2 incubated for 16 to 18 hrs by CLSI based broth dilution method; type: functional; details: time 16-18 hrs
Staphylococcus aureus [28] = test: Antibacterial activity against methicillin-sensitive Staphylococcus aureus ATCC 29213 incubated for 16 to 18 hrs by CLSI based broth dilution method; type: functional; details: time 16-18 hrs
Staphylococcus aureus [29] = test: Antibacterial activity against vancomycin intermediate Staphylococcus aureus ATCC 700788 incubated for 16 to 18 hrs by CLSI based broth dilution method; type: functional; details: time 16-18 hrs
Staphylococcus aureus [30] = test: Antibacterial activity against Methicillin-resistant Staphylococcus aureus ATCC 43300 infected in ip dosed ICR mouse thigh infection model assessed as reduction in bacterial growth measured after 24 hrs post-treatment; type: functional, organism-based; details: dose lower 7.5 mg/kg, dose upper […]
Pseudomonas aeruginosa = test: Antibacterial activity against Pseudomonas aeruginosa ATCC 27853 incubated for 16 to 18 hrs by CLSI based broth dilution method; type: functional; details: time 16-18 hrs
Klebsiella pneumoniae [31] = test: Antibacterial activity against Klebsiella pneumoniae 15-1 assessed as reduction in microbial growth incubated for 16 to 18 hrs by CLSI based broth dilution method; type: functional; details: time 16-18 hrs
Enterococcus faecalis [32] = test: Antibacterial activity against Enterococcus faecalis EFA19-2 incubated for 16 to 18 hrs by CLSI based broth dilution method; type: functional; details: time 16-18 hrs
Staphylococcus aureus [33] = test: Antibacterial activity against vancomycin intermediate Staphylococcus aureus ATCC 700699 incubated for 16 to 18 hrs by CLSI based broth dilution method; type: functional; details: time 16-18 hrs
Escherichia coli [34] = test: Antibacterial activity against Escherichia coli ATCC BAA-2340 incubated for 16 to 18 hrs by CLSI based broth dilution method; type: functional; details: time 16-18 hrs

Nc1nc(N)c2c(ccc3c2ccn3Cc2cccc3scnc23)n1
MIC (Staphylococcus aureus [1]): ≤ 0.004 µg/mL | MIC (Escherichia coli [2]): 0.03 µg/mL (≈ 0.0866 µM) | MIC (Staphylococcus aureus [3]): 0.25 µg/mL | IC50 (HepG2): 170 nM | MIC [4]: ≤ 4 ng/mL | Activity (Escherichia coli [5]): Active | IC50 (HGC-27): 11 nM | MIC (Escherichia coli [6]): 0.25 µg/mL | Activity [7]: Toxic | MIC (Escherichia coli [8]): 0.03 µg/mL (≈ 0.0866 µM) | IC50 (MCF7): 110 nM | Activity (Staphylococcus aureus [9]): Active | MIC (Acinetobacter baumannii [10]): 0.5 µg/mL (≈ 1.44 µM) | IC50 (HCT-116): 32 nM | MIC (Staphylococcus aureus [11]): 0.008 µg/mL (≈ 0.0231 µM) | MIC (Staphylococcus aureus [12]): 0.008 µg/mL (≈ 0.0231 µM) | MIC (Staphylococcus aureus [13]): 0.25 µg/mL | MIC (Enterococcus faecalis [14]): ≤ 0.004 µg/mL | MIC (Staphylococcus aureus [15]): 0.004 µg/mL (≈ 0.0115 µM) | LD50 at 192 h [16]: 88.9 mg/kg | Activity (Staphylococcus aureus [17]): Active

COc1cc(Cc2cnc(N)nc2N)cc(OC)c1OC [TRIMETHOPRIM]
MIC (Staphylococcus aureus [1]): 0.5 µg/mL (≈ 1.72 µM) | MIC (Escherichia coli [2]): 0.5 µg/mL (≈ 1.72 µM) | MIC (Staphylococcus aureus [3]): 0.5 µg/mL | MIC (Escherichia coli [18]): > 64 µg/mL | MIC [4]: ≤ 4 ng/mL | MIC (Acinetobacter baumannii [19]): > 64 µg/mL | MIC (Klebsiella pneumoniae [20]): 4 µg/mL | MIC (Escherichia coli [6]): 0.5 µg/mL | MIC (Staphylococcus aureus [21]): 0.5 µg/mL (≈ 1.72 µM) | MIC (Escherichia coli [8]): 0.5 µg/mL (≈ 1.72 µM) | MIC (Staphylococcus aureus [22]): 1 µg/mL (≈ 3.44 µM) | MIC (Enterococcus faecalis [23]): 0.25 µg/mL (≈ 0.861 µM) | MIC (Acinetobacter baumannii [10]): 16 µg/mL (≈ 55.1 µM) | MIC (Staphylococcus aureus [24]): 0.25 µg/mL (≈ 0.861 µM) | MIC (Staphylococcus aureus [11]): 1 µg/mL (≈ 3.44 µM) | MIC (Acinetobacter baumannii [25]): 16 µg/mL | MIC (Staphylococcus aureus [26]): 1 µg/mL (≈ 3.44 µM) | MIC (Enterococcus): ≤ 0.03 µg/mL | MIC (Acinetobacter baumannii [27]): 16 µg/mL (≈ 55.1 µM) | MIC (Staphylococcus aureus [12]): 1 µg/mL (≈ 3.44 µM) | MIC (Staphylococcus aureus [28]): 1 µg/mL (≈ 3.44 µM) | MIC (Staphylococcus aureus [29]): 0.5 µg/mL (≈ 1.72 µM) | MIC (Staphylococcus aureus [13]): 1 µg/mL | Activity (Staphylococcus aureus [30]): Active | MIC (Enterococcus faecalis [14]): 0.5 µg/mL (≈ 1.72 µM) | MIC (Pseudomonas aeruginosa): > 64 µg/mL | MIC (Staphylococcus aureus [15]): 0.5 µg/mL (≈ 1.72 µM) | MIC (Klebsiella pneumoniae [31]): 8 µg/mL | MIC (Enterococcus faecalis [32]): 0.5 µg/mL (≈ 1.72 µM) | LD50 at 192 h [16]: > 800 mg/kg | MIC (Staphylococcus aureus [33]): 1 µg/mL (≈ 3.44 µM) | MIC (Escherichia coli [34]): 64 µg/mL (≈ 220 µM)
